Data taken from ChEMBL document CHEMBL1201862, “PubChem BioAssay data set” (2004).
Activity calls are given as the source filed them.

Assays:
[1] = A Cell Based Secondary Assay To Explore Cytotoxicity of Compounds that Sensitize Mycobacterium Tuberculosis to Beta-Lactam Antibiotics.; assay type: functional
[2] = Counterscreen for IDE inhibitors: Luminescence-based cell-based high throughput dose response assay to identify compounds that are cytotoxic to HEK cells. [Related pubchem assays: 434962 (Primary screen (IDE inhibitors in singlicate)), 449730 (Counterscreen (Cytotoxicity in triplicate)), 435028 (Confirmation (IDE inhibitors in triplicate)) …; assay type: functional; conditions: HEK293
Insulin-degrading enzyme = target: T1, Insulin-degrading enzyme (Homo sapiens, UniProt P14735); experiment: Dose Response: Fluorescence polarization-based cell-based high throughput dose response assay for inhibitors of insulin-degrading enzyme (IDE). [Related pubchem assays: 434962 (Primary screen (IDE inhibitors in singlicate)), 449730 (Counterscreen (Cytotoxicity in triplicate)), 435028 (Confirmation (IDE inhibitors in triplicate)), 434984 (Summary …; assay type: functional
T1 sequence (P14735 whole entry): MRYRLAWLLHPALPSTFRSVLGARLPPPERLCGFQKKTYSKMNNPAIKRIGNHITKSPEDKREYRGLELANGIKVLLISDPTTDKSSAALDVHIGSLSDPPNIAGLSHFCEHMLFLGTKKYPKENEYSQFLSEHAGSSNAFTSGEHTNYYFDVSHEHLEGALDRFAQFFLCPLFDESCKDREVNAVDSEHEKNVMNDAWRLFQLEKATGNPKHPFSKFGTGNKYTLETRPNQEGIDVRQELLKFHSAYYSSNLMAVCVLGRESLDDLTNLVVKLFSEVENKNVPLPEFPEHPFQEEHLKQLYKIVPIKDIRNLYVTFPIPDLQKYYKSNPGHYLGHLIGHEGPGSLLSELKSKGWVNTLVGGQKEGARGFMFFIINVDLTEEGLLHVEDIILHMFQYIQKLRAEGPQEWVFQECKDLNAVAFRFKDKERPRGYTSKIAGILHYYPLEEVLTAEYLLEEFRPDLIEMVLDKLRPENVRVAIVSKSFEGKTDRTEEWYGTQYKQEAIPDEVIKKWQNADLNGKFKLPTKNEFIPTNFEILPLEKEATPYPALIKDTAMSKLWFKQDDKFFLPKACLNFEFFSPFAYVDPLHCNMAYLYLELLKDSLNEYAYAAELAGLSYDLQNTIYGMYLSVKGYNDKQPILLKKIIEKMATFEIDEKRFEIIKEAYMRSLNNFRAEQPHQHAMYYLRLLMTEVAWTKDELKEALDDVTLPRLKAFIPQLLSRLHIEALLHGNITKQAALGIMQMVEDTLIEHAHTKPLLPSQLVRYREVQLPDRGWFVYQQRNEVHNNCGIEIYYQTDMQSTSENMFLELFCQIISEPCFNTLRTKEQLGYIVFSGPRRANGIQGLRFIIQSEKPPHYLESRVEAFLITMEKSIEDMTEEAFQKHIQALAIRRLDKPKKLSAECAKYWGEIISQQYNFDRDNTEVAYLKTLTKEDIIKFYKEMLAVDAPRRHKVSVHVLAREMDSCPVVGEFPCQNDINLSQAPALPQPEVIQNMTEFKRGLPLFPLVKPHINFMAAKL

[3] = target: Heat shock protein HSP 90-alpha (Homo sapiens, UniProt P07900); assay type: functional, organism-based
[4] = target: G-protein coupled receptor 35 (Homo sapiens, UniProt Q9HC97); experiment: inhibition of zaprinast-stimulated GPR35 beta-arrestin translocation – imaging, U2OS, beta-arrestin-GFP, zaprinast agonist, primary screen (AID 2058); assay type: functional;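 further: antagonist potency meaning inhibition of agonist-induced arrestin redistribution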
[5] = target: T2, Acyl-homoserine lactone acylase PvdQ (Pseudomonas aeruginosa (strain LESB58), UniProt Q9I194); experiment: PvdQ acylase enzyme activity blockers – biochemical, fluorescence, plate reader and imaging, cherry-picks, dose response (AID 493231)
T2 sequence (Q9I194 whole entry): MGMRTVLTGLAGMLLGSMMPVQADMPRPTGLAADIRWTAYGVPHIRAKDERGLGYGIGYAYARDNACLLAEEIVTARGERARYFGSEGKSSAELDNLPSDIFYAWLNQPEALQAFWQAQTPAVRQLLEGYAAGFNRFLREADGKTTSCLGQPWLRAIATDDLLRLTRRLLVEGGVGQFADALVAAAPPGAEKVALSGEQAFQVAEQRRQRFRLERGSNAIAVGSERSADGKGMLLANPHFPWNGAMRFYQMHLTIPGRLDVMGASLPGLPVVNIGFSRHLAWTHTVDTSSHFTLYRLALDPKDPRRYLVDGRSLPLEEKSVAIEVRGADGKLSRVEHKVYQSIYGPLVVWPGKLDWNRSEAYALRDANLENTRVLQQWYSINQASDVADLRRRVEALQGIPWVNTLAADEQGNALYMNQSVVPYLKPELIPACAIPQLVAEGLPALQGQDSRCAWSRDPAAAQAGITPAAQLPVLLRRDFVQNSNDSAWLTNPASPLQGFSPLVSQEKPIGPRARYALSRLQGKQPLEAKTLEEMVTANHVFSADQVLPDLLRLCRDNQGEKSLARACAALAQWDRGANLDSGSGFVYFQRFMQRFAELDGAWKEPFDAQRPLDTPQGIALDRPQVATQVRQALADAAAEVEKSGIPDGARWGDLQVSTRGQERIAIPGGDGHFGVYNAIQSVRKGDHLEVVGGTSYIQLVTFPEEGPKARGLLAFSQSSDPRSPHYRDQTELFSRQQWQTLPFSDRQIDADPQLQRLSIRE

[6] = target: T3, Lysosomal acid glucosylceramidase (Homo sapiens, UniProt P04062); experiment: Dose response cell-based high throughput screening assay to identify enhancers of beta-glucosidase activity. [Related pubchem assays: 784 ]; assay type: functional
T3 sequence (P04062 whole entry): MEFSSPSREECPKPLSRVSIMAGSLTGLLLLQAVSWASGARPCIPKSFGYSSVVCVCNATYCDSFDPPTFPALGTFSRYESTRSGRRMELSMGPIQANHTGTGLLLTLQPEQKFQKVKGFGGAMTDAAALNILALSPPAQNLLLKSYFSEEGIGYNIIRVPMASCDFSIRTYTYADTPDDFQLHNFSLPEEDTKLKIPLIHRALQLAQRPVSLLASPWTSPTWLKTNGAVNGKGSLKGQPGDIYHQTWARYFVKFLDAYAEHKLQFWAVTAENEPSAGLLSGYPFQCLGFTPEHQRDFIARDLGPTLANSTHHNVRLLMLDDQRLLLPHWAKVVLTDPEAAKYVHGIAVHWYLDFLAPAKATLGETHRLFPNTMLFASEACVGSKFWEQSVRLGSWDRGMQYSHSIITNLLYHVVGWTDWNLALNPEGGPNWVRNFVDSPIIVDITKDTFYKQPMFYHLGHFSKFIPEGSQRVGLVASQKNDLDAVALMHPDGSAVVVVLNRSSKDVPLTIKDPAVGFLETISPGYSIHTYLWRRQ

[7] = M. tuberculosis H37Rv growth inhibitors, H37Rv strain (AID 1626); assay type: functional
Melanocortin receptor 4 = Melanocortin receptor 4 (Homo sapiens, UniProt P32245); assay type: functional, cell-based;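 further: Cell-based assay with luminescence read-out, confirmatory dose-response testing for agonist activity of biased ligands at MC4R; human U2OS cells with tagged receptor and beta-arrestin; potency of agonists that increase receptor coupling to beta-arrestin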
[8] = viability of HCT116 lacking mutant beta-catenin – cell-based, human colon tumor, dose response (AID 1045); assay type: functional;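 further: HCT116 colon tumor cells with beta catenin knocked out; cells exposed to compound for 60 hours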
[9] = viability of PTEN-deleted HCT116 cells – cell-based, HCT116 PTEN knockout, dose response (AID 1047); assay type: functional;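 further: HCT116 colon tumor cells with PTEN knocked out; cells exposed to compound for 60 hours before readout; potency for loss of cell viability measured by luminescence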
cells [10] = assay type: functional, cell-based
cells [11] = assay type: functional, cell-based; remark: listed apart in the source
[12] = HPDE-C7 pancreatic duct cell viability loss – fluorescence, HTS (AID 430); assay type: functional, cell-based; conditions: Homo sapiens
Streptococcus = experiment: GAS UMAA2166 growth inhibition – luminescence, BacTiterGlo, counter-screen for streptokinase expression inhibitor project, dose response (AID 1915); assay type: functional, organism-based;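 further: potency for reduction of bacterial viability or growth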
[13] = tested on: Streptococcus sp. 'group A'; experiment: Streptococcus pyogenes SK(-)GAS viability under kanamycin – luminescence, BacTiterGlo, confirmation, counter-screen for streptokinase expression inhibitor project, dose response (AID 1900); assay type: functional, organism-based
[14] = viability loss of HPDE-C7K cells – cell-based, fluorescence, HTS, primary screen (AID 431); assay type: functional; conditions: Homo sapiens
Streptokinase A = target: T4, Streptokinase A (Streptococcus pyogenes serotype M1, UniProt P10520); experiment: viability-normalized secreted streptokinase activity reduction – plasminogen activation absorbance, OD405, dose response (AID 1914); assay type: functional, Streptococcus pyogenes M1 GAS;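 further: secreted streptokinase activity via plasminogen activation per viability signal from cell pellet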
T4 sequence (P10520 whole entry): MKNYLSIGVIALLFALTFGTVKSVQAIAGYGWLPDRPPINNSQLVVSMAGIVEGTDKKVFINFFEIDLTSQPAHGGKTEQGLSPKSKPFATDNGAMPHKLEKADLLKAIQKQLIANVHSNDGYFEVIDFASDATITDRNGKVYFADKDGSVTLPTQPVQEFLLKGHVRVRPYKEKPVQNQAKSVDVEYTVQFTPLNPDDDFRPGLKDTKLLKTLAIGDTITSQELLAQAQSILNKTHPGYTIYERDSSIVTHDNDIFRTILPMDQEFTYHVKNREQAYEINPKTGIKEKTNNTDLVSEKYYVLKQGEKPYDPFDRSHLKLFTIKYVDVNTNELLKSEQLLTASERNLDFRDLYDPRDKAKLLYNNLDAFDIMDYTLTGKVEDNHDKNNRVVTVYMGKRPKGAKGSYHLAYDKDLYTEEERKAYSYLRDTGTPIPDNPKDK

[15] = target: Peroxisome proliferator-activated receptor gamma/Nuclear receptor coactivator 2 (Homo sapiens, UniProt P37231); assay type: functional;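 further: agonist potency for raising coactivator recruitment to the receptor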
[16] = target: Peroxisome proliferator-activated receptor gamma/Nuclear receptor coactivator 3 (Homo sapiens, UniProt P37231); assay type: functional;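 further: agonist potency for raising coactivator recruitment to the receptor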
[17] = target: Peroxisome proliferator-activated receptor gamma/Nuclear receptor coactivator 1 (Homo sapiens, UniProt P37231); assay type: functional;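 further: agonist potency as compounds enhance coactivator SRC-1 recruitment to PPARgamma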
[18] = Luminescence Cell-Based Dose Retest to Confirm Inhibitors of Cancer Stem Cells. [Related pubchem assays (depositor defined):AID2717, AID2721]; assay type: functional; conditions: Homo sapiens
[19] = target: DNA dC->dU-editing enzyme APOBEC-3A (Homo sapiens, UniProt P31941); experiment: A3A deaminase inhibition for selectivity – biochemical, dose response (AID 504722); assay type: functional
[20] = target: DNA dC->dU-editing enzyme APOBEC-3G (Homo sapiens, UniProt Q9HC16); experiment: Dose Response confirmation of small molecule APOBEC3G DNA Deaminase Inhibitors via a fluorescence-based single-stranded DNA deaminase assay. [Related pubchem assays (depositor defined):AID493012, AID493028]; assay type: functional
Cytochrome P450 2C9 = Cytochrome P450 2C9 (Homo sapiens, UniProt P11712)
Cytochrome P450 2C19 = Cytochrome P450 2C19 (Homo sapiens, UniProt P33261); experiment: Cytochrome panel assay with activity outcomes. Panel member name: p450-cyp2c19 Compounds with AC50 equal or less than 10 uM are considered active; assay type: functional; conditions: read-out: AC50

Chain of Peroxisome proliferator-activated receptor gamma/Nuclear receptor coactivator 3 (P37231 whole entry): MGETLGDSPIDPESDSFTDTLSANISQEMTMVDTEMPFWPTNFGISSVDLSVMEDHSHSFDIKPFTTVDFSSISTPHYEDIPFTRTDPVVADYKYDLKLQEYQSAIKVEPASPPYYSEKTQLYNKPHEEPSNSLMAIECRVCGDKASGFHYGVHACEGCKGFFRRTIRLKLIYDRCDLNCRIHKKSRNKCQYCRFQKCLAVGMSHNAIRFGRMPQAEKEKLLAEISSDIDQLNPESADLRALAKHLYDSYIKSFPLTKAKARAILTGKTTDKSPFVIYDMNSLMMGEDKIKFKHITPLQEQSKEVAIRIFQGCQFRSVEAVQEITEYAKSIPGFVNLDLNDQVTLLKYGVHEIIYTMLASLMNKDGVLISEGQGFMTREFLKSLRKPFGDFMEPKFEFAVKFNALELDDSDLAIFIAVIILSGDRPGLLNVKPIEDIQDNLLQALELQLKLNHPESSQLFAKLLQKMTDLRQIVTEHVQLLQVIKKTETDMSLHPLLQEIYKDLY
Chain of Peroxisome proliferator-activated receptor gamma/Nuclear receptor coactivator 3 (Q9Y6Q9 whole entry, further chain): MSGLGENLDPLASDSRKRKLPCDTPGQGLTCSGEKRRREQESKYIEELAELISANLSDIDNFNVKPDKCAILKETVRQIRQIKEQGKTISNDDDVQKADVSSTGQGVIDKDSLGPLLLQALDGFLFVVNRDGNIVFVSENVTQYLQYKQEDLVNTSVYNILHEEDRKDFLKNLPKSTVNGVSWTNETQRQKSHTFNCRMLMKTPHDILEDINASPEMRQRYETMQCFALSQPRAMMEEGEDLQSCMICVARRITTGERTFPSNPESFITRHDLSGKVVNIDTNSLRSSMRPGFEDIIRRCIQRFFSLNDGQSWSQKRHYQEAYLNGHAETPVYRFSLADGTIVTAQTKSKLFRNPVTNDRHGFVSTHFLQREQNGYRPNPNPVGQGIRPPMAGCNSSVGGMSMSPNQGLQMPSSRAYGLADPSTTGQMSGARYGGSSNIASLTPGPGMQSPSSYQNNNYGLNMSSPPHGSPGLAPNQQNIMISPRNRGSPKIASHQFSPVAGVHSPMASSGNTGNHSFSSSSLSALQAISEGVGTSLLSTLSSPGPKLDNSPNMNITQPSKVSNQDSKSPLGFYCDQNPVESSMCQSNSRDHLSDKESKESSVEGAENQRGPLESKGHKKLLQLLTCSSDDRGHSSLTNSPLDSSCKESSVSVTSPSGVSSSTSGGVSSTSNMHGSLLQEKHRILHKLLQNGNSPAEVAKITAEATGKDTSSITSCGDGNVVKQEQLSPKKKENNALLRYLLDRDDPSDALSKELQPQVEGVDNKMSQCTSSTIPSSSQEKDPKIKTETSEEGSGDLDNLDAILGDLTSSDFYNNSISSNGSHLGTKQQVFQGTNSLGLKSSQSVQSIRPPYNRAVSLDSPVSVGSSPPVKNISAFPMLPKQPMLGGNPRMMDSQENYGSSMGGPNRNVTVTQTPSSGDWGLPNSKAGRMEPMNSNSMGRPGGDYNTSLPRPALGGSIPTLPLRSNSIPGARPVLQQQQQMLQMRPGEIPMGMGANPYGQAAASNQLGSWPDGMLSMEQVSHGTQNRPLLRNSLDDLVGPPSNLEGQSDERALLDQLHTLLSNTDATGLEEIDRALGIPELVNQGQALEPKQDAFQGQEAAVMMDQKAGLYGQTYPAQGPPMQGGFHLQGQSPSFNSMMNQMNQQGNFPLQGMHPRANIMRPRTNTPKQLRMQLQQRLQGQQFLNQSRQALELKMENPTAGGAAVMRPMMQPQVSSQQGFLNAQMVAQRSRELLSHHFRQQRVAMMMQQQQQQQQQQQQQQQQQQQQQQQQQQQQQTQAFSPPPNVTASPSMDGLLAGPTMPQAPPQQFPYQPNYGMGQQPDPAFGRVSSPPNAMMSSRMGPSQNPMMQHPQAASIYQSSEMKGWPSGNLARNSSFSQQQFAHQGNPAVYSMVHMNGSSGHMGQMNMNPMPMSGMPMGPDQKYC
Chain of Peroxisome proliferator-activated receptor gamma/Nuclear receptor coactivator 2 (P37231 whole entry): as the sequence (P37231 whole entry) above
Chain of Peroxisome proliferator-activated receptor gamma/Nuclear receptor coactivator 2 (Q15596 whole entry, further chain): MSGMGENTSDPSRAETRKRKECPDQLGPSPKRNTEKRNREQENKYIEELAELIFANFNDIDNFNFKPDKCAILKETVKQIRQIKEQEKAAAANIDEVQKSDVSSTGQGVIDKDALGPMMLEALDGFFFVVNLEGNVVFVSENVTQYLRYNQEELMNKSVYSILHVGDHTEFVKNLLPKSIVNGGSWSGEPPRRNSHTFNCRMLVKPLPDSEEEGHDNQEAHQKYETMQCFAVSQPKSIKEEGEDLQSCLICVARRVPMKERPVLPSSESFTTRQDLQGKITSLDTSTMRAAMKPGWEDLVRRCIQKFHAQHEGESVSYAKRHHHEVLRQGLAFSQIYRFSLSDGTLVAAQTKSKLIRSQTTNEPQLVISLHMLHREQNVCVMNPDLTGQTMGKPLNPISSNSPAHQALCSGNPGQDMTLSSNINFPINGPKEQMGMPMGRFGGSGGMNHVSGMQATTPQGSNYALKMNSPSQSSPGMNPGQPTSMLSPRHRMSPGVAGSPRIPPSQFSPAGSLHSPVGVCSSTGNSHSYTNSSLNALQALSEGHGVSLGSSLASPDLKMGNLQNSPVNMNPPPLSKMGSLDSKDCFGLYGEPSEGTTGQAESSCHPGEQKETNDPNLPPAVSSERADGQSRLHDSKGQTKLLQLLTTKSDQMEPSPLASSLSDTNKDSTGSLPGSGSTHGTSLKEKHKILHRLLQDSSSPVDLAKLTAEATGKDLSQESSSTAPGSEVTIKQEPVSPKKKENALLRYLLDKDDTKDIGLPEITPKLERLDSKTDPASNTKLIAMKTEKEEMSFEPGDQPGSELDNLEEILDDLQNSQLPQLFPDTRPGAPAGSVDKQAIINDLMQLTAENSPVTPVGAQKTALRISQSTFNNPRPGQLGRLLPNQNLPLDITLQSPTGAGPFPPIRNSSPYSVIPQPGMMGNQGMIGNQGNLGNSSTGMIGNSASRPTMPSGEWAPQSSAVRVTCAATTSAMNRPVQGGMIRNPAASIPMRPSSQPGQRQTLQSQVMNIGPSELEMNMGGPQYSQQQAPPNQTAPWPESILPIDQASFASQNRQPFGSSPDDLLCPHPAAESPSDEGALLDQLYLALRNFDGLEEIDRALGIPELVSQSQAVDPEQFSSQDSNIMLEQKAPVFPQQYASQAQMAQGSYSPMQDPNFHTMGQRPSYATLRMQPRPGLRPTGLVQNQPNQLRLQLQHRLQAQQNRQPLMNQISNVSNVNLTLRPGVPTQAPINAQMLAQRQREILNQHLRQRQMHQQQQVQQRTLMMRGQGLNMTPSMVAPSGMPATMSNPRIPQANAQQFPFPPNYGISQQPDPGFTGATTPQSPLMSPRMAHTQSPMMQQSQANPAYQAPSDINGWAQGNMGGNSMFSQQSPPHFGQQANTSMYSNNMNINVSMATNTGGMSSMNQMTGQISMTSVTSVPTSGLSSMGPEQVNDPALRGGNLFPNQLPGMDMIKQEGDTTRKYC
Chain of G-protein coupled receptor 35 (Q9HC97 whole entry): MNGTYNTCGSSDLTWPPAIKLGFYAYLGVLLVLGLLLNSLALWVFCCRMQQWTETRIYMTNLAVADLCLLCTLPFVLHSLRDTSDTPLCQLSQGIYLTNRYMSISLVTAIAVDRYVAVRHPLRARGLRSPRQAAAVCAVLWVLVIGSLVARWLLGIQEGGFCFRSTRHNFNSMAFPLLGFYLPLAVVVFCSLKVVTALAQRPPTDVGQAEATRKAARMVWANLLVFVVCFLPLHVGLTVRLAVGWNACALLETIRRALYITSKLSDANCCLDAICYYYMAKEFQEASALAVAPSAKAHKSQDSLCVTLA
Chain of DNA dC->dU-editing enzyme APOBEC-3G (Q9HC16 whole entry): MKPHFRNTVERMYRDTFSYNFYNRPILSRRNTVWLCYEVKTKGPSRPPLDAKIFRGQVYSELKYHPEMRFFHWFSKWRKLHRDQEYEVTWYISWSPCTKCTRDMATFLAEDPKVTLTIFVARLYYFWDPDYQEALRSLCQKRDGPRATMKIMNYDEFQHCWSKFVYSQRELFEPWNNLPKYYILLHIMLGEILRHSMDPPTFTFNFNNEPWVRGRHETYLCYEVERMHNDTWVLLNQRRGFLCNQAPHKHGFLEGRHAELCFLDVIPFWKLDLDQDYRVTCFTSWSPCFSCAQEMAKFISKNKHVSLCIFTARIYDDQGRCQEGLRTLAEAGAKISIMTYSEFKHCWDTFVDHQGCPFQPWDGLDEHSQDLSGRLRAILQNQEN
Chain of DNA dC->dU-editing enzyme APOBEC-3A (P31941 whole entry): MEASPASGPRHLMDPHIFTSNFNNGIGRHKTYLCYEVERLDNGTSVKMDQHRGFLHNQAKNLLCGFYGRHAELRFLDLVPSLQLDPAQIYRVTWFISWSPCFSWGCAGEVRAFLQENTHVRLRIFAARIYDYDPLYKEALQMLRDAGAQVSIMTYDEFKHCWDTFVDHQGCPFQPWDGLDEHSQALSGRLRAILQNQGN

O=C(/C=C/c1ccc([N+](=O)[O-])cc1)c1cccs1
CC50 [1]: 20.9 µM (active)

Cc1cc(C)cc(Nc2cnn(C34CC5CC(CC(CC(=O)O)(C5)C3)C4)c(=O)c2Cl)c1
IC50 [2]: 0.0039 µM (active)
IC50 (Insulin-degrading enzyme): 21.5 µM (not active)

CN(C)/C=C/C(=O)c1ccc(N2CCN(c3ncc(C(F)(F)F)cc3Cl)CC2)cc1
AC50 [3]: 4.29 µM (active)
IC50 [4]: 0.53 µM (active)

CCN1C(=O)/C(=C/C=C2/CCCN2C)OC1=S
IC50 [2]: > 55.7 µM (not active)
IC50 (Insulin-degrading enzyme): 30.7 µM (not active)

Cc1ccc(S(=O)(=O)NCc2ccc3c(c2)OCO3)cc1C
AC50 [5]: 70.4 µM (active)

Cc1nonc1NC(=O)CSc1nc2cc(Cl)ccc2c2c1CCCC2
EC50 [6]: > 10 µM (not active)

O=C(COc1ccc2c(c1)OCO2)Nc1ccc2c(c1)oc1ccccc12
IC50 [7]: > 100 µM (active)
EC50 (Melanocortin receptor 4): > 89.2 µM (inactive)

Oc1ccc(F)cc1-c1cc(-c2ccc3c(c2)OCCO3)[nH]n1
AC50 [5]: > 100 µM (inactive)
EC50 [8]: 25.9 µM (active)
EC50 [9]: 46.6 µM (active)

CCCCCCN1C=CC=C/C1=C/C=C(C#N)C#N
IC50 [2]: 45.9 µM (not active)
EC50 (cells [10]): > 350 µM (not active)
IC50 (Insulin-degrading enzyme): > 6.22 µM (active)
EC50 (cells [11]): > 350 µM (not active)

CC(C)(C)C1CCC2(CC1)C(C#N)=C(SCC(=O)Nc1ccccc1)NC(=O)C2C#N (stereo not drawn)
EC50 [12]: 5.05 µM (active)
EC50 (Streptococcus): 25.2 µM (active)
EC50 [13]: 4.96 µM (active)
EC50 [14]: 4.26 µM (active)
EC50 (Streptokinase A): 11.5 µM (active)

Cc1cccnc1NC(=O)c1c(O)c2cccc3c2n(c1=O)CCC3
CC50 [1]: > 40 µM (active)

COc1ccc(NC(=O)CN2CCN(S(=O)(=O)c3ccc(C(C)C)cc3)CC2)cc1OC
EC50 [6]: > 10 µM (not active)

CCCCSc1nnc([C@H](C)NC(=O)OC(C)(C)C)o1
EC50 [15]: > 79.4 µM (not active)
EC50 [16]: > 79.4 µM (not active)
EC50 [17]: > 79.4 µM (not active)

CCc1c(C#N)c(N)nc(SCC(=O)OCc2ccccc2)c1C#N
IC50 [7]: > 100 µM (active)

CCC(C)NS(=O)(=O)c1ccc(OC)c(Cl)c1Cl (stereo not drawn)
AC50 [5]: 10 µM (active)

CCCOC(=O)c1ccc(Oc2c[nH]nc2-c2ccc(OC)cc2O)cc1
EC50 [12]: 8.49 µM (active)
EC50 (Streptococcus): 10.3 µM (active)
EC50 [13]: 8.73 µM (active)
AC50 [3]: 7.97 µM (active)
EC50 [14]: 6.14 µM (active)

O=C(Nc1ccccc1-c1ccccc1)C12CC3CC(CC(C3)C1)C2
CC50 [1]: > 40 µM (active)

NNc1nc2c(-c3ccc(F)cc3)nnn2c2ccccc12
EC50 [15]: > 79.4 µM (not active)
EC50 [16]: > 79.4 µM (not active)
EC50 [17]: > 79.4 µM (not active)

O=C(c1cc(COc2ccc(F)cc2Cl)on1)N1CCC(OCc2cccnc2)CC1
IC50 [7]: > 100 µM (active)

CC(NS(=O)(=O)OCC(Cl)(Cl)Cl)c1ccc(C(C)(C)C)cc1 (stereo not drawn)
EC50 (Streptococcus): 12.8 µM (active)
EC50 [13]: 4.61 µM (active)
AC50 [18]: 2.77 µM (active)
IC50 [4]: 1.46 µM (active)
EC50 (Streptokinase A): 4.06 µM (active)

CCn1c(SCC(=O)O)nnc1C1CCCCC1
EC50 [15]: > 79.4 µM (not active)
EC50 [16]: > 79.4 µM (not active)
EC50 [17]: > 79.4 µM (not active)

CCc1nnc(S)n1/N=C/c1c(O)ccc2ccccc12
IC50 [19]: > 100 µM (inactive)
IC50 [20]: 4 µM (active)

Cn1c(/C(C#N)=C(\O)c2ccc(S(=O)(=O)N3CCCCC3)cc2)nc2ccccc21
AC50 (Cytochrome P450 2C9): 0.316 µM (inconclusive)
AC50 (Cytochrome P450 2C19): 10 µM (inconclusive)
EC50 [6]: > 50 µM (not active)
